pIC50: −log10 of the molar value.
Columns and labels:
ER = target: T1, ER (Homo sapiens, UniProt P03372); assay: Western blot degradation of ER (MCF-7 Cell); type: cell-based; conditions: Table D12
T1 construct: evaluate the effects of the compounds of the present disclosure on the expression of target proteins in cells; endogenous in cells; host or cells: MCF-7
T1 sequence (P03372 1-595): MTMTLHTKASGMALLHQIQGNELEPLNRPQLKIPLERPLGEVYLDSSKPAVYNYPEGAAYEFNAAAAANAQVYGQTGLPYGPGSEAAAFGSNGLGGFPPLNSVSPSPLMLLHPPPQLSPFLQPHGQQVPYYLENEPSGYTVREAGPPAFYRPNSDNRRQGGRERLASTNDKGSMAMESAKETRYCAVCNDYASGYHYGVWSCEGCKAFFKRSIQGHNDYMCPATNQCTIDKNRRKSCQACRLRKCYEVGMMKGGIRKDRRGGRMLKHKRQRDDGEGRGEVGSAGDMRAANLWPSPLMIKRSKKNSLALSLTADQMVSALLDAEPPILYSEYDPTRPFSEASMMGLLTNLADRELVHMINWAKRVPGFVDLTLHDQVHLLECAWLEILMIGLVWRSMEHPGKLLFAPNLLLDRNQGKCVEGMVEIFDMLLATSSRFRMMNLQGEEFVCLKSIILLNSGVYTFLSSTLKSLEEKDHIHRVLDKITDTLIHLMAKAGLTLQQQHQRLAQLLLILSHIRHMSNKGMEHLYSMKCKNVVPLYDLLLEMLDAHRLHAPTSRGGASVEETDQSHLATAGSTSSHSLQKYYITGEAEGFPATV
Experimental: (§1) Conventional Western blot assay was performed to evaluate the effects of the compounds of the present disclosure on the expression of target proteins in cells.
(§2) (1) Cell Seeding and Protein Harvesting: The selected cells were processed according to the cell seeding procedure and protein harvesting procedure in Table III-2. Table III-2 Cell Seeding and Protein Harvesting Procedures
(§3) (2) To the collected supernatant, 5X SDS sample loading buffer was added, followed by denaturation at 95°C for 5 minutes. The denatured samples were then separated by SDS-PAGE electrophoresis on a polyacrylamide gel. Proteins were transferred to a nitrocellulose membrane (0.45 µm NC membrane), blocked with blocking buffer at room temperature for 1 hour, and subjected to antibody incubation and development procedures according to the antibody manufacturer's instructions (Cell Signaling Technology).
(§4) Half-Maximal Degradation Concentration value (the drug concentration required for degrading proteins by 50%, abbreviated as DC50) reads method: comparing the grayscale values of Western blot bands from drug-treated samples with those from blank DMSO-treated controls, and identifying the drug concentration range at which the grayscale value is half that of the DMSO-treated control bands.
(§5) DC50 values can be calculated using ImageJ software to measure grayscale values of Western blot bands from drug-treated samples. The concentration-response curve is fitted to estimate the drug concentration corresponding to half the grayscale value.
(§6) Target protein remaining (%) refers to the percentage of target protein remaining in hPBMC cells after treatment with protein degrader compounds.
(§7) Calculation method for target protein remaining (%): Use ImageJ software to measure grayscale values of Western blot bands from drug (protein degrader)-treated samples. The grayscale value of drug-treated bands is divided by that of internal control protein bands, and the resulting quotient is normalized to obtain the relative percentage of remaining target protein after protein degrader treatment.
(§8) Target protein degradation rate (%) = 100% - target protein remaining (%).

SU-DHL-4 = assay: CCK-8 proliferation, SU-DHL-4; type: cell-based; conditions: Homo sapiens, 72 hours, read-out: Inhibitory activity (IC50) on tumor cell proliferation, SU-DHL-4
Experimental: (§9) The tumor cells used herein were cultured in a cell culture medium listed in table A1 at 37°C in an incubator with 5% CO2. Prior to experimentation, all cell lines used were correctly identified by STR profiling, and tested negative for mycoplasma contamination using a mycoplasma detection kit through routine screenings. Table A1. Tumor cells and cell culture medium used in the present disclosure
(§10) IC50 values of the compounds of the present disclosure (including the compounds in Table 1, and compounds of examples) were measured using the Meilun Cell Counting Kit-8 kit from Dalian Meilun Biotech Co., Ltd. Assay details are as follows: tumor cells were seeded in a 96-well plate at a density listed in Table A2. After 24h, 100 µL of the inoculated cells were treated with 0.5µL of the compounds of the present disclosure (including the compounds in Tables 1 and 2, and compounds of examples) at 10 different successively decreasing concentrations (starting at the highest concentration of 10µM; 5-fold serial dilutions). After the cells were treated with the compounds of the present disclosure for a period of time, the cell viability detection reagent was added to the culture medium for cell viability assessment according to the instructions provided with the CCK-8 kit. […] The growth inhibition of the compounds of the present disclosure on cells was plotted by Prism Graphpad software, and the IC50 values of the compounds of the present disclosure were calculated therefrom. […] Seeding protocol and treatment time for tumor cells

Jurkat = assay: CCK-8 proliferation, Jurkat; type: cell-based, Human; conditions: Homo sapiens, Jurkat; CCK-8; 96 hours; read-out: Inhibitory activity (IC50) on tumor cell proliferation, Jurkat
Method in brief: (§11)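 CCK-8 viability readout; IC50 from growth-inhibition curve fitting. Cells plated, dosed 24h later with a 10-point series, top 10µM, 5-fold steps. Culture at 37°C, 5% CO2.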

CDK9 = target: T2, CDK9 (Homo sapiens, UniProt P50750); assay: Western blot degradation of CDK9 (MDA-MB-231 Cell); type: cell-based; conditions: Table D13
T2 construct: evaluate the effects of the compounds of the present disclosure on the expression of target proteins in cells; endogenous in cells; host or cells: MDA-MB-231
T2 sequence (P50750 whole entry): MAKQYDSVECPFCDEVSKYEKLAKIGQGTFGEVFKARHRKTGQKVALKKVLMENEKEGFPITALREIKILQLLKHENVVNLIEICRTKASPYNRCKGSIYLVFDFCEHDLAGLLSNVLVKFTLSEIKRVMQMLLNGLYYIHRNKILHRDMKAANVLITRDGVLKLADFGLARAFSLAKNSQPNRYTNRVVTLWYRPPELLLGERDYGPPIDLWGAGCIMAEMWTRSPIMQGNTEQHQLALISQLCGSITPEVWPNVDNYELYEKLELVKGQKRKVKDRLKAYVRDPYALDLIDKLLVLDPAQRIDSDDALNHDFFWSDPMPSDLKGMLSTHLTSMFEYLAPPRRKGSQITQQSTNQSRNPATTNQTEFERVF
Experimental: as §1, §2, §3, §4, §5, §6, §7, §8

DU-145 = assay: CCK-8 proliferation, DU-145; type: cell-based; conditions: Homo sapiens, 96 hours, read-out: Inhibitory activity (IC50) on tumor cell proliferation, DU-145
Experimental: as §9, §10

[1] = target: T3, human Cereblon WT GST-tagged protein (Homo sapiens, UniProt Q96SW2); assay: CRBN binding, HTRF (CEREBLON BINDING kit); conditions: HTRF; for pIC50: Table II-1, CRBN binding
T3 construct: purchased CISBIO 64BDCRBNPEH
T3 sequence (Q96SW2 whole entry): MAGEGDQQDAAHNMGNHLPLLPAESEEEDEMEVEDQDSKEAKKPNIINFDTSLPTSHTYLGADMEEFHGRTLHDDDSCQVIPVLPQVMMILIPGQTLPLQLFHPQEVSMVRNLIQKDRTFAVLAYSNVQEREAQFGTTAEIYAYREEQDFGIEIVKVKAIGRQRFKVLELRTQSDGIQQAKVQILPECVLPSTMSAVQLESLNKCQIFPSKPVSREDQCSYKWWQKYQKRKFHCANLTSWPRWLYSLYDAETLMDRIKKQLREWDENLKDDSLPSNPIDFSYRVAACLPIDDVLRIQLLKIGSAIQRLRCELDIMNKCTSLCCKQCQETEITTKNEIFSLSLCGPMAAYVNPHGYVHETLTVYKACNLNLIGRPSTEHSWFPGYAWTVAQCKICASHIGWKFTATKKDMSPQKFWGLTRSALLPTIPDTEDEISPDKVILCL
Method in brief: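 Competitive HTRF: GST-tagged human WT Cereblon mixed with compound, Thalidomide-Re tracer and GST Eu antibody, incubated 3 h at room temperature. Signals read at 620 and 665 nm.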

CCRF-CEM = assay: CCK-8 proliferation, CCRF-CEM; type: cell-based, Human; conditions: Homo sapiens, CCRF-CEM; CCK-8; 96 hours; read-out: Inhibitory activity (IC50) on tumor cell proliferation, CCRF-CEM
Method in brief: as §11

TMD8 = assay: CCK-8 proliferation, TMD8; type: cell-based; conditions: Homo sapiens, TMD8; CCK-8; 72 hours; read-out: Inhibitory activity (IC50) on tumor cell proliferation, TMD8
Experimental: as §9, §10

LNcap = assay: CCK-8 proliferation, LNcap; type: cell-based; conditions: Homo sapiens, LNCaP; CCK-8; 96 hours; read-out: Inhibitory activity (IC50) on tumor cell proliferation, Lncap
Method in brief: as §11

SW620 = assay: CCK-8 proliferation, SW620; type: cell-based; conditions: Homo sapiens, SW-620; CCK-8; 96 hours; read-out: Inhibitory activity (IC50) on tumor cell proliferation, SW620
Method in brief: as §11

MGC-803 = assay: CCK-8 proliferation, MGC-803 (heads: MGC80-3, MGC803); type: cell-based, Human; conditions: Homo sapiens, MGC-803; CCK-8; 72 hours; read-out: Inhibitory activity (IC50) on tumor cell proliferation, MGC803
Method in brief: as §11

CFPAC-1 = assay: CCK-8 proliferation, CFPAC-1; type: cell-based; conditions: Homo sapiens, 72 or 96 hours, read-out: Inhibitory activity (IC50) on tumor cell proliferation, CFPAC-1
Experimental: as §9, §10

MM.1R = assay: CCK-8 proliferation, MM.1R; type: cell-based; conditions: CCK-8, 72 hours, read-out: Inhibitory activity (IC50) on tumor cell proliferation, MM.1R
Method in brief: as §11

K562 = assay: CCK-8 proliferation, K562; type: cell-based; conditions: Homo sapiens, 72 or 96 hours, read-out: Inhibitory activity (IC50) on tumor cell proliferation, K562
Experimental: as §9, §10

H2228 = assay: CCK-8 proliferation, NCI-H2228 (H2228); type: cell-based; conditions: Homo sapiens, NCI-H2228; CCK-8; 96 hours; read-out: Inhibitory activity (IC50) on tumor cell proliferation, H2228
Method in brief: as §11

H1975 = assay: CCK-8 proliferation, NCI-H1975 (H1975); type: cell-based, Human; conditions: Homo sapiens, NCI-H1975; CCK-8; 96 hours; read-out: Inhibitory activity (IC50) on tumor cell proliferation, H1975
Method in brief: as §11

PC-9 = assay: CCK-8 proliferation, PC-9; type: cell-based, Human; conditions: Homo sapiens, PC-9; CCK-8; 96 hours; read-out: Inhibitory activity (IC50) on tumor cell proliferation, PC-9
Method in brief: as §11

## CCC(=C(c1ccc(O)cc1)c1ccc(N2CCN(Cc3ccc(C4CCC(=O)NC4=O)cc3)CC2)cc1)c1ccc(O)cc1 (stereo not drawn) [GT-04149, 3-(4-((4-(4-(1,2-bis(4-hydroxyphenyl)but-1-en-1-yl)phenyl)piperazin-1-yl)methyl)phenyl)piperidine-2,6-dione]
ER
  Degradation of substrate protein ER (substrate protein remaining %): A (A is defined as 0% ≤ substrate protein remaining % ≤ 80%)

## O=C1CCC(Nc2cccc(CN3CCN(C4CCN(c5ccc([C@@H]6c7ccc(O)cc7CC[C@@H]6c6ccccc6)cc5)CC4)CC3)c2)C(=O)N1 (stereo partly drawn) [GT-04674, 3-((3-((4-(1-(4-((1R,2S)-6-hydroxy-2-phenyl-1,2,3,4-tetrahydronaphthalen-1-yl)phenyl)piperidin-4-yl)piperazin-1-yl)methyl)phenyl)amino)pip eridine-2,6-dione]
ER
  Degradation of substrate protein ER (substrate protein remaining %): A (A is defined as 0% ≤ substrate protein remaining % ≤ 80%)

## O=C1CCC(c2ccc(CN3CCC(n4cc(NC(=O)c5coc(-c6ccnc(NCC(F)(F)F)c6)n5)c(C(F)F)n4)CC3)cc2)C(=O)N1 (stereo not drawn) [GT-04121, N-(3-(difluoromethyl)-1-(1-(4-(2,6-dioxopiperidin-3-yl)benzyl)piperidin-4-yl)-1H-pyrazol-4-yl)-2-(2-((2,2,2-trifluoroethyl)amino)pyridin-4-yl)oxazole-4-carboxamide]
SU-DHL-4
  pIC50: 6.00 to 6.30
Jurkat
  pIC50: 6.30 to 7.00
CDK9
  Degradation of substrate protein CDK9 (substrate protein remaining %): A (A is defined as 0% ≤ substrate protein remaining % ≤ 80%)
DU-145
  pIC50: 6.30 to 7.00
[1]; Table II-2, CRBN binding screening, at 0.5µM
  Inhibition rate (%) at 0.5µM: a2 (20% < a2 ≤ 30%)
[1]; Table II-2, CRBN binding screening, at 2 µM
  Inhibition rate (%) at 2 µM: a6 (60% < a6 ≤ 80%)
CCRF-CEM
  pIC50: 7.30 to 8.00
TMD8
  pIC50: 6.30 to 7.00

## Cc1nc(Nc2ncc(C(=O)Nc3c(C)cccc3Cl)s2)cc(N2CCN(CCO)CC2)n1 [Dasatinib, reference compound]
Jurkat
  pIC50: 5.30 to 6.00
LNcap
  pIC50: 5.00 to 5.30
SW620
  pIC50: 5.30 to 6.00
CCRF-CEM
  pIC50: < 5.00
MGC-803
  pIC50: 5.00 to 5.30
CFPAC-1
  pIC50: 6.30 to 7.00

## O=C1CCC(c2ccc(CN3CCN(C4CCN(c5ccc([C@@H]6c7ccc(O)cc7CC[C@@H]6c6ccccc6)cc5)CC4)CC3)cc2)C(=O)N1 (stereo partly drawn) [GT-04684, 3-(4-((4-(1-(4-((1R,2S)-6-hydroxy-2-phenyl-1,2,3,4-tetrahydronaphthalen-1-yl)phenyl)piperidin-4-yl)piperazin-1-yl)methyl)phenyl)piperidine-2,6-dione]
[1]
  pIC50: 5.72 to 6.00
ER
  Degradation of substrate protein ER (substrate protein remaining %): A (A is defined as 0% ≤ substrate protein remaining % ≤ 80%)

## O=C1CCC(c2ccc(CN3CCN(C4CCN(c5ccc([C@@H]6c7ccc(O)cc7CC[C@@H]6c6ccccc6)cc5)CC4)CC3)cc2F)C(=O)N1 (stereo partly drawn) [GT-04670, 3-(2-fluoro-4-((4-(1-(4-((1R,2S)-6-hydroxy-2-phenyl-1,2,3,4-tetrahydronaphthalen-1-yl)phenyl)piperidin-4-yl)piperazin-1-yl)methyl)phenyl)piperidine-2,6-dione]
[1]
  pIC50: 6.00 to 6.30
ER
  Degradation of substrate protein ER (substrate protein remaining %): A (A is defined as 0% ≤ substrate protein remaining % ≤ 80%)

## NC(=O)c1ccc(N2CCC(N3CCN(Cc4ccc(C5CCC(=O)NC5=O)c(F)c4)CC3)CC2)nc1-c1ccc(Oc2ccccc2)cc1 (stereo not drawn) [GT-03754, 6-(4-(4-(4-(2,6-dioxopiperidin-3-yl)-3-fluorobenzyl)piperazin-1-yl)piperidin-1-yl)-2-(4-phenoxyphenyl)nicotinamide]
MM.1R
  pIC50: 6.30 to 7.00
SW620
  pIC50: 6.30 to 7.00
K562
  pIC50: 6.30 to 7.00

## NC(=O)c1ccc(N2CCC(N3CCN(Cc4ccc(C5CCC(=O)NC5=O)cc4)CC3)CC2)nc1-c1ccc(Oc2ccccc2)cc1 (stereo not drawn) [GT-03753, 6-(4-(4-(4-(2,6-dioxopiperidin-3-yl)benzyl)piperazin-1-yl)piperidin-1-yl)-2-(4-phenoxyphenyl)nicotinamide]
MM.1R
  pIC50: 6.00 to 6.30
SW620
  pIC50: 6.00 to 6.30
K562
  pIC50: 6.30 to 7.00

## Cc1ccc(C(=O)Nc2ccc(CN3CCN(Cc4ccc(C5CCC(=O)NC5=O)cc4)CC3)c(C(F)(F)F)c2)cc1C#Cc1cnc2cccnn12 (stereo not drawn) [GT-03936]
Jurkat
  pIC50: 7.00 to 7.30
LNcap
  pIC50: 6.30 to 7.00
SW620
  pIC50: 6.30 to 7.00
CCRF-CEM
  pIC50: 6.30 to 7.00
MGC-803
  pIC50: 6.30 to 7.00
CFPAC-1
  pIC50: 6.30 to 7.00

## C=CC(=O)N1CCC(c2ccc(C(N)=O)c(-c3ccc(Oc4ccccc4)cc3)n2)CC1 [Orelabrutinib, reference compound]
H2228
  pIC50: < 5.00
H1975
  pIC50: < 5.00
MM.1R
  pIC50: < 5.00
SW620
  pIC50: < 5.00
K562
  pIC50: < 5.00
PC-9
  pIC50: < 5.00
TMD8
  pIC50: 5.00 to 5.30

From patent publication EP4678638A1, “NEW E3 UBIQUITIN LIGASE LIGAND, PROTEIN DEGRADATION AGENT AND USE THEREOF” (priority 2023, dated 2024)
